From ChEMBL document CHEMBL3885861, “Open TG-GATES”

Species on record: Rattus norvegicus
Test: Open TG-GATES - Regimen: Daily Repeat
Format: toxicity, organism-based, Sprague-Dawley
Set-up: regimen Daily Repeat, gender Male, age 6 weeks
Settings: in vivo, po, route gavage; for TP / gamma-GTP / A/G / ALP / ALT / AST / BUN / CRE / Ca / Cl / GLC / IP / K / LDH / Na / PL / RALB / TC / TG: tissue Plasma; for APTT / Bas / Eos / Fbg / Hb / Ht / Lym / MCH / MCHC / MCV / Mono / Neu / PT / Plat / RBC / Ret / WBC: tissue Blood; for KIDNEY_L / KIDNEY_R / KIDNEY_TOTAL: tissue Kidney; for LIVER: tissue Liver
[1] = 300 mg/kg, […], dose level Middle, time 28 day
[2] = 1000 mg/kg, 72 h, dose level High, time 3 day
[3] = 1000 mg/kg, […], dose level High, time 7 day
[4] = 1000 mg/kg, […], dose level High, time 14 day
[5] = 1000 mg/kg, […], dose level High, time 28 day

O=C(O)c1ccccc1Nc1ccccc1 [FENAMIC ACID]
TP [1]: 6.4 g/dL
gamma-GTP [1]: 1 IU/L
TERMINAL_BW [2]: 219.3 g
APTT [2]: 17 s
Bas [2]: 0.3%
Eos [2]: 0.7%
Fbg [2]: 440 mg/dL
Hb [2]: 13.3 g/dL
Ht [2]: 39.3%
Lym [2]: 50.3%
MCH [2]: 20.5 pg
MCHC [2]: 33.8%
MCV [2]: 60.5 fL
Mono [2]: 3.3%
Neu [2]: 44.3%
PT [2]: 14 s
Plat [2]: 127 x10_4/uL
RBC [2]: 650 x10_4/ul
Ret [2]: 5.7%
WBC [2]: 132.2 x10_2/uL
KIDNEY_L [2]: 1.1 g
KIDNEY_R [2]: 1.1 g
KIDNEY_TOTAL [2]: 2.1 g
LIVER [2]: 10.8 g
A/G [2]: 0.9
ALP [2]: 1423.7 IU/L
ALT [2]: 37.7 IU/L
AST [2]: 58.3 IU/L
BUN [2]: 17 mg/dL
CRE [2]: 0.2 mg/dL
Ca [2]: 11.4 mg/dL
Cl [2]: 109 meq/L
GLC [2]: 165.7 mg/dL
IP [2]: 6.6 mg/dL
K [2]: 4.4 meq/L
LDH [2]: 100.3 IU/L
Na [2]: 143.3 meq/L
PL [2]: 148.7 mg/dL
RALB [2]: 2.5 g/dL
TC [2]: 67 mg/dL
TG [2]: 89.3 mg/dL
TP [2]: 5.3 g/dL
gamma-GTP [2]: 1.3 IU/L
TERMINAL_BW [3]: 253.6 g
TERMINAL_BW [4]: 281.5 g
TERMINAL_BW [5]: 383.3 g
APTT [3]: 16.6 s
Bas [3]: 1%
Eos [3]: 0.7%
Fbg [3]: 290.7 mg/dL
Hb [3]: 12.6 g/dL
Ht [3]: 37%
Lym [3]: 72.3%
MCH [3]: 20.5 pg
MCHC [3]: 34%
MCV [3]: 60.2 fL
Mono [3]: 3%
Neu [3]: 23.3%
PT [3]: 14.1 s
Plat [3]: 156 x10_4/uL
RBC [3]: 616 x10_4/ul
Ret [3]: 7.7%
WBC [3]: 161.4 x10_2/uL
APTT [4]: 32.8 s
Bas [4]: 0.7%
Eos [4]: 0.3%
Fbg [4]: 473.3 mg/dL
Hb [4]: 14 g/dL
Ht [4]: 41.7%
Lym [4]: 53.3%
MCH [4]: 21.1 pg
MCHC [4]: 33.5%
MCV [4]: 63.2 fL
Mono [4]: 3.7%
Neu [4]: 41.7%
PT [4]: 13.2 s
Plat [4]: 171.8 x10_4/uL
RBC [4]: 674 x10_4/ul
Ret [4]: 13.6%
WBC [4]: 149.3 x10_2/uL
APTT [5]: 17.1 s
Bas [5]: 0%
Eos [5]: 0.5%
Fbg [5]: 334.5 mg/dL
Hb [5]: 12.2 g/dL
Ht [5]: 36%
Lym [5]: 69%
MCH [5]: 19.6 pg
MCHC [5]: 34%
MCV [5]: 57.6 fL
Mono [5]: 2.5%
Neu [5]: 27.5%
PT [5]: 13.9 s
Plat [5]: 139.6 x10_4/uL
RBC [5]: 626 x10_4/ul
Ret [5]: 7.5%
WBC [5]: 154.4 x10_2/uL
KIDNEY_L [3]: 1.1 g
KIDNEY_R [3]: 1.1 g
KIDNEY_TOTAL [3]: 2.3 g
KIDNEY_L [4]: 2.1 g
KIDNEY_R [4]: 1.8 g
KIDNEY_TOTAL [4]: 4 g
KIDNEY_L [5]: 1.7 g
KIDNEY_R [5]: 1.6 g
KIDNEY_TOTAL [5]: 3.3 g
LIVER [3]: 12.5 g
LIVER [4]: 13.5 g
LIVER [5]: 18.7 g
A/G [3]: 0.9
ALP [3]: 1573.3 IU/L
ALT [3]: 38 IU/L
AST [3]: 62.7 IU/L
BUN [3]: 20 mg/dL
CRE [3]: 0.3 mg/dL
Ca [3]: 11.5 mg/dL
Cl [3]: 107 meq/L
GLC [3]: 177.3 mg/dL
IP [3]: 6.3 mg/dL
K [3]: 4.3 meq/L
LDH [3]: 117 IU/L
Na [3]: 144 meq/L
PL [3]: 155.7 mg/dL
RALB [3]: 2.6 g/dL
TC [3]: 87.7 mg/dL
TG [3]: 75.3 mg/dL
TP [3]: 5.6 g/dL
gamma-GTP [3]: 1 IU/L
A/G [4]: 0.9
ALP [4]: 1270.3 IU/L
ALT [4]: 38.3 IU/L
AST [4]: 57.3 IU/L
BUN [4]: 118.3 mg/dL
CRE [4]: 0.5 mg/dL
Ca [4]: 11.8 mg/dL
Cl [4]: 105.7 meq/L
GLC [4]: 156.7 mg/dL
IP [4]: 11 mg/dL
K [4]: 5.2 meq/L
LDH [4]: 210 IU/L
Na [4]: 145.3 meq/L
PL [4]: 140.7 mg/dL
RALB [4]: 2.9 g/dL
TC [4]: 65 mg/dL
TG [4]: 94.7 mg/dL
TP [4]: 6.3 g/dL
gamma-GTP [4]: 2 IU/L
A/G [5]: 0.9
ALP [5]: 1013.5 IU/L
ALT [5]: 36.5 IU/L
AST [5]: 61.5 IU/L
BUN [5]: 20 mg/dL
CRE [5]: 0.3 mg/dL
Ca [5]: 10.8 mg/dL
Cl [5]: 105 meq/L
GLC [5]: 182.5 mg/dL
IP [5]: 5.5 mg/dL
K [5]: 4.2 meq/L
LDH [5]: 155.5 IU/L
Na [5]: 144.5 meq/L
PL [5]: 166 mg/dL
RALB [5]: 2.5 g/dL
TC [5]: 80 mg/dL
TG [5]: 92 mg/dL
TP [5]: 5.5 g/dL
gamma-GTP [5]: 1 IU/L
